Measurements published in patent US20230083417A1, “THERAPEUTIC COMBINATION FOR THE TREATMENT OF BRAIN ISCHEMIA AND SAID THERAPEUTIC COMBINATION FOR USE IN THE TREATMENT OF BRAIN ISCHEMIA” (Universiteit Maastricht, priority 2020, published 2023).
Entries after “also recorded” stand apart in the source; their conditions may differ.

Tests used:
[1] = tested on: Human Brain Microvascular Endothelial Cells (HBMECs); test: HBMEC under hypoxic conditions, cell viability by MTT (Example 5); assay type: cell-based; details: 6 h hypoxia, 24 h re-oxygenation; GKT137831 0.3 μM, SMTC 0.1 μM, BAY 58-2667 0.03 μM, single or combined
Method: HBME cells (Cell systems, USA) between passage 3 and 9 were cultured to ˜95% confluence using a specialized cell medium and grow factors (EGM-2 MV BulletKit, Lonza, The Netherlands) enriched with 5% fetal bovine serum (FBS; Sigma-Aldrich, The Netherlands). Before being subjected to hypoxia, HBMECs were seeded at 6×10^4 cells/ml in 12 wells-plate and incubated for 24 h at 37° C. Then, the cell medium was replaced with non-FBS containing medium (2 ml/well) followed by 6 h of hypoxia (94.8% N2, 0.2% 02 and 5% CO2) at 37° C. using the hypoxia workstations (Ruskin Invivo2 400 station, The Netherlands). […] Control cells were exposed to normoxia (75% N2, 20% O2, and 5% CO2) and enriched medium during the hypoxia period.
24 h post-re-oxygenation, cell viability was assessed using the colorimetric MTT (3-(4,5-dimethylthiazol-2-yl)-2,5-diphenyltetrazolium bromide) assay (24). MTT solution (5 mg/ml) was added (100 μl/ml) and incubated for 2 h at 37° C. The formazan salt formed was solubilized by adding DMSO (250 μl/well) for later measuring spectrophotometrically its optical density at 540 nm.

[2] = tested on: Human Brain Microvascular Endothelial Cells (HBMEC); test: HBMEC subjected to hypoxia (OGD), cell viability by MTT (Example 3); assay type: cell-based; details: 6 h hypoxia, 24 h reperfusion; GKT136901 0.1 μM, BAY58-2667 0.01 μM, STMC 0.3 μM, alone or combined
Method: Human Brain Microvascular Endothelial Cells (HBMEC) Subjected to Hypoxia. —HBMEC (Cell systems, USA) between passage 3 and 9 were cultured using specialized cell medium enriched with 5% fetal bovine serum. HBMECs were seeded (6×10^4 cells/ml) in 12 wells-plates and incubated during 24 h at 37° C. Later, cell medium was replaced for non-FBS containing medium followed by 6 h of hypoxia (94.8% N2, 0.2% O2 and 5% CO2) at 37° C. using hypoxia workstations. The hypoxia period was followed by 24 h of reperfusion in presence or absence of GKT136901 (GKT, 0.1 μM; NOXi), BAY58-2667 (BAY58, 0.01 μM; sGCa) or S-methyl-1-thiocitrulline (STMC, 0.3 μM; NOSi) or a combination of the three. Control cells were exposed to normoxia (75% N2, 20% O2 and 5% CO2), normal glucose concentration and enriched medium during the hypoxia period (Basal). After 24 h reperfusion, cell viability was assessed using the colorimetric MTT assay. MTT solution (5 mg/ml) was added to each well (100 μl/ml) and incubated for 2 h at 37° C. The formazan salt formed was solubilized by adding […] DMSO and measured spectrophotometrically at 540 nm.

[3] = tested on: mice subjected to 45 min tMCAO; test: 45 min tMCAO in non-diabetic and STZ-diabetic mice, infarct size; assay type: in vivo; details: i.p., GKT137831 10 mg/kg, SMTC 1 mg/kg, BAY58-2667 0.03 mg/kg, single or combined
Method: Diabetes was induced in mice (6-9 weeks old) by i.p. injections of streptozotocin (STZ) (Merck Millipore, The Netherlands) dissolved in 0.5M sodium citrate buffer with a final dose of 55 mg/kg during 5 consecutive days. Blood glucose was measured daily for 7 days after the last STZ injection using a glucometer (Contor XT, Ascensia Diabetes Care, The Netherlands). Blood glucose levels higher than 12 mM 7 days after STZ injections were considered diabetic and therefore included in the study. Diabetic mice were monitored daily for any signs of welfare discomfort, and blood glucose levels were followed-up weekly (FIG. 18 (Table S2), FIG. 19 (Table S3)).
Therefore, only the combination therapy was assessed.
After animal sacrificing, brains were quickly removed and cut into four 2 mm thick coronal sections using a mouse brain slicer matrix (Zivic Instruments, The Netherlands). Brain slices were kept at 4° C. during 5 min and later stained using 2% 2,3,5-triphenyltetrazolium (TTC; Sigma-Aldrich, The Netherlands) for 15 min at room temperature in PBS to visualize the infarctions. Indirect infarct volumes were calculated by volumetry (ImageJ software, National Institutes of Health, USA) according to the following equation:
Vindirect (mm^3)=Vinfarct×(1−(Vih−Vch)/Vch)
where the term (Vih−Vch) represents the volume difference between the ischemic hemisphere and the control hemisphere and (Vih−Vch)/Vch expresses this difference as a percentage of the control hemisphere.

[4] = tested on: C57BL/6J mice subjected to middle cerebral artery occlusion (MCAO); test: In vivo MCAO ischemia model (1 h tMCAO), infarct volume by TTC; details: for infarct volume: i.p. 1 h after reperfusion, L-NAME 3 mg/kg, GKT136901 10 mg/kg, BAY60-2770 0.5 μg/kg; for infarct volume / infarct size, single therapy: 24 h; for infarct volume / infarct volume, subthreshold doses and triple combination: alone or combined at identical doses; for infarct volume, subthreshold doses and triple combination: 1 h post-ischemia, i.p., PTU 3 mg/kg, PPZ 1 mg/kg, riociguat 0.004 mg/kg; for infarct size, single therapy: i.p. 1 h post-reperfusion, perphenazine 3 mg/kg, PTU 9 mg/kg, riociguat 0.01 mg/kg
Method: In vivo MCAO Ischemia Model. —C57BL/6J mice were subjected to middle cerebral artery occlusion (MCAO) during 1 h followed by 24 h of reperfusion. Mice were anesthetized with 1.5% isoflurane (Abbott) in a 70% N2O/30% O2 mixture. Core body temperature was maintained at 37° C. The external carotid artery was ligated and a rubber-coated 6.0 nylon monofilament (6021; Doccol) was inserted to occlude the origin of the right MCA for 60 minutes. Then, animals were re-anesthetized and the occluding monofilament was withdrawn to allow for reperfusion^10. L-NAME (NOSi, 3 mg/kg) or propylthiouracil (NOSi, 9 mg/kg), GKT136901 (NOXi, 10 mg/kg) or perphenazine (NOXi, 3 mg/kg) and BAY60-2770 (sGCa, 0.5 μg/kg) or riociguat (sGCs, 0.1 mg/kg), as well as combinations of these compounds were dissolved and vehicle or compound(s) were injected intraperitoneally (i.p.) 1 h after reperfusion. After 23 h of reperfusion animals were sacrificed and brains were quickly removed and cut in 3 2-mm thick coronal sections. The slices were stained for 10 minutes at 37° C. with 2% 2,3,5-triphenyltetrazolium chloride (TTC, Sigma-Aldrich) in PBS to visualize the infarct volume. The results of these measurements are shown in FIG. 1, FIG. 3, FIG. 5 and FIG. 9.
Based on a repurposing strategy, already marketed compounds validated as NOX inhibitors and NOS inhibitors were selected for further pre-clinical experimentation. Similarly, an already approved sGC stimulator was included repurposed for a non-cardiovascular indication. Wildtype mice were subjected to 1 h tMCAO and subsequently treated with each compound separately, in double combination or triple for later assessment of infarct volume 24 h post-stroke (FIG. 15A-G).

[5] = tested on: rat hippocampal brain slices; test: Rat hippocampal brain slices, OGD and re-oxygenation, cell viability by MTT; assay type: cell-based; details: 15 min OGD, 2 h re-oxygenation, GKT136901 0.1 μM, L-NAME 0.3 μM, BAY60-2770 0.01 μM, separately or combined at identical concentrations, vs untreated OGD
Source text: Rat Hippocampal Brain Slice Experiments. —2-3 months old adult male Sprague-Dawley rats were used. For hippocampal slices preparation and induction of oxygen deprivation and glucose deprivation (OGD), animals were decapitated and the brains were removed and transferred into ice-cold Krebs bicarbonate dissection buffer containing glucose and sucrose. Thereafter, hippocampi were dissected and sectioned in transverse slices of 250 μm. To stabilize tissue after slicing, slices were transferred to sucrose-free dissection buffer during 45 minutes at 34° C. Then, control group slices were incubated 15 minutes in a Krebs solution. Slices subjected to OGD were incubated in a Krebs buffer pre-bubbled with 95% N2/5% CO2, where 2-deoxyglucose replaced glucose. OGD period was followed by 2 h of re-oxygenation at 37° C. where slices were returned back to an oxygenated Krebs solution containing glucose^8. During the re-oxygenation period, slices were treated with 0.01 μM BAY60-2770 (BAY; sGCa), 0.1 μM GKT136901 (GKT; NOXi) and 0.3 μM L-NAME (LN; NOSi) separately and in combination at identical respective doses of: NOXi and NOSi, NOSi and sGCa, NOXi and sGCa, and NOXi, NOSi and sGCa. Cellular viability was quantified by their ability to reduce MTT. After re-oxygenation, slices were incubated with MTT (0.5 mg/ml) in Krebs bicarbonate solution for 40 minutes at 37° C. The formazan produced was solubilized by adding 200 μl dimethyl sulfoxide, giving a colored compound whose optical density was measured in an ELISA microplate reader at 540 nm^9. The results of these measurements are depicted in FIG. 2, FIG. 4, FIG. 6 and FIG. 7.

SMILES | cell viability, normal glucose [1] | cell viability (MTT) [2] | infarct size 24 h post-stroke, non-diabetic mice [3] | infarct volume [4] | infarct volume, subthreshold doses and triple combination [4] | infarct size, single therapy [4] | further results
O=C(O)CCCCN(CCc1ccccc1OCc1ccc(CCc2ccccc2)cc1)Cc1ccc(C(=O)O)cc1 [BAY58-2667, cinaciguat] | no reduction was detected | lower cell viability than the control cells (Basal) | no effect was detected | – | – | – | –
COC(=O)[C@@H](N)CCCNC(=N)N[N+](=O)[O-] [L-NAME, N omega-Nitro-L-arginine methyl ester] | – | – | – | potent activity in reducing the infarct volume | – | – | infarct volume ([4]; listed as LN): reduced infarct volume; cell viability (MTT reduction) [5]: Neither the NOSi (L-NAME), nor the sGCa (BAY60) alone was able to improve cell viability; cell viability (MTT reduction) ([5]; listed as LN): able to restore the cell viability of the hippocampal cells to some extent
O=C(O)CCCCN(CCc1cc(F)ccc1OCc1ccc(-c2ccc(C(F)(F)F)cc2)cc1)Cc1ccc(C(=O)O)cc1 [BAY60-2770] | – | – | – | potent activity in reducing the infarct volume | – | – | infarct volume ([4]; listed as BAY60): reduced infarct volume; cell viability (MTT reduction) [5]: Neither the NOSi (L-NAME), nor the sGCa (BAY60) alone was able to improve cell viability; cell viability (MTT reduction) ([5]; listed as BAY): did not show improved cell viability
CN(C)c1cccc(-c2c3c(=O)n(-c4ccccc4Cl)[nH]c3cc(=O)n2C)c1 [GKT137831] | no reduction was detected | – | no effect was detected | – | – | – | –
CSC(N)=NCCC[C@H](N)C(=O)O [SMTC, S-Methyl-L-thiocitrulline] | no reduction was detected | only a relatively small improvement in cell viability | no effect was detected | – | – | – | –
OCCN1CCN(CCCN2c3ccccc3Sc3ccc(Cl)cc32)CC1 [PPZ, perphenazine] | – | – | – | – | not able to reduce infarct volume; also recorded: no reduction of infarct volume; also recorded: without effect | significantly smaller infarct size | –
Cc1c2c(=O)n(-c3ccccc3Cl)[nH]c2cc(=O)n1Cc1ccccn1 [GKT136901] | – | only a relatively small improvement in cell viability | – | potent activity in reducing the infarct volume | – | – | cell viability (MTT reduction) ([5]; listed as GKT): able to restore the cell viability of the hippocampal cells to some extent; also recorded: able to improve cell viability
CCCc1cc(=O)[nH]c(=S)[nH]1 [PTU, propylthiouracil] | – | – | – | – | not able to reduce infarct volume; also recorded: no reduction of infarct volume; also recorded: without effect | tends to reduce | –
COC(=O)N(C)c1c(N)nc(-c2nn(Cc3ccccc3F)c3ncccc23)nc1N [Rio, riociguat] | – | – | – | – | not able to reduce infarct volume; also recorded: no reduction of infarct volume; also recorded: without effect | significantly smaller infarct size | –
